Results published in PMC6525040 (ChemMedChem, 2019).

Columns and labels:
[1] = tested on: relaxed covalently-closed circular dsDNA plasmid (pRS306); assay: dsDNA intercalation assay; type: binding; conditions: 10 μM; DMSO vehicle defined as 0, saturation of the endpoint = 1
[2] = target: T1, Human RAD51 protein binding to ssDNA (Homo sapiens, UniProt Q06609); assay: RAD51-DNA binding assay; conditions: gel shift, 0.5 μM RAD51
T1 sequence (Q06609 1-339): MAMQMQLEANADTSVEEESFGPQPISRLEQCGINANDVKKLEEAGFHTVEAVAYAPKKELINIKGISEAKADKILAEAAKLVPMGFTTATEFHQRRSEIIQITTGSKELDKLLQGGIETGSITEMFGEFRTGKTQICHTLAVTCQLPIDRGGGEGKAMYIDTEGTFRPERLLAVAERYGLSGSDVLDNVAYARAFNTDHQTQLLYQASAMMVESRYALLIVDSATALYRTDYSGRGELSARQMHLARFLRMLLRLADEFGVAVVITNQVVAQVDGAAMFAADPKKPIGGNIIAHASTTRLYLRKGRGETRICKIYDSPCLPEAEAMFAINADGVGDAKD

CCN(CC)CCCC(C)Nc1ccnc2cc(Cl)ccc12 (centres unmarked) [chloroquine]
intercalation score [1]: 1

O=C1C(Cl)=C(N2CCOCC2)C(=O)N1c1ccc(Cl)c(Cl)c1 [RI-1]
effect on RAD51 binding to ssDNA / RAD51-ssDNA nucleoprotein filaments (in words) [2]: inhibited
